According to PubChem BioAssay AID248 (DTP/NCI, 2004):
Inconclusive results and toxic doses are left out. No stated cut-off is given here; in the data, active means T/C of 150% or more; inactive means T/C below 125%.

Tested on: L1210 leukemia ip in BDF1 mice, survival T/C
Experiment: NCI In Vivo Anticancer Drug Screen. Data for tumor model L1210 Leukemia (intraperitoneal) in B6D2F1 (BDF1) mice
Conditions: endpoint: mean survival time, higher = longer survival
Summary of the method: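 Antitumor effect is assessed in tumor-bearing animals. Survival in the compound arm is compared with a vehicle-dosed control arm and expressed as their quotient.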

[1] = dose: 100.0 mg/kg/injection, schedule: Q01DX001 (ip), vehicle: carboxymethylcellulose (CMC)
[2] = dose: 200.0 mg/kg/injection, schedule: Q01DX001 (ip), vehicle: carboxymethylcellulose (CMC)
[3] = dose: 400.0 mg/kg/injection, schedule: Q01DX001 (ip), vehicle: carboxymethylcellulose (CMC)
[4] = dose: 100.0 mg/kg/injection, schedule: Q04DX003 (ip), vehicle: saline
[5] = dose: 200.0 mg/kg/injection, schedule: Q04DX003 (ip), vehicle: saline

Measured: T/C

O=C1CN=C(c2ccccn2)c2cc(Cl)ccc2N1
inactive: dose: 50.0 mg/kg/injection, schedule: Q01DX009 (ip), vehicle: water 98 % of control | dose: 100.0 mg/kg/injection, schedule: Q01DX009 (ip), vehicle: water 97 % of control | dose: 200.0 mg/kg/injection, schedule: Q01DX009 (ip), vehicle: water 104 % of control | dose: 200.0 mg/kg/injection, schedule: Q04DX003 (ip), vehicle: none 99 % of control | dose: 200.0 mg/kg/injection, schedule: Q04DX003 (ip), vehicle: water 100 % of control | dose: 267.0 mg/kg/injection, schedule: Q01DX009 (ip), vehicle: saline 97 % of control | dose: 400.0 mg/kg/injection, schedule: Q01DX009 (ip), vehicle: saline 110 % of control | dose: 400.0 mg/kg/injection, schedule: Q04DX003 (ip), vehicle: none 101 % of control | dose: 400.0 mg/kg/injection, schedule: Q04DX003 (ip), vehicle: water 102 % of control | dose: 600.0 mg/kg/injection, schedule: Q04DX003 (ip), vehicle: none 101 % of control | dose: 600.0 mg/kg/injection, schedule: Q04DX003 (ip), vehicle: water 102 % of control
active: dose: 400.0 mg/kg/injection, schedule: Q01DX009 (ip), vehicle: water 198 % of control

O=C(CSc1cc(Cl)c(Cl)cc1Cl)Nc1cccc(Cl)c1
inactive: dose: 100.0 mg/kg/injection, schedule: Q01DX001 (ip), vehicle: saline with Tween-80 95 % of control | dose: 200.0 mg/kg/injection, schedule: Q01DX001 (ip), vehicle: saline with Tween-80 98 % of control | dose: 400.0 mg/kg/injection, schedule: Q01DX001 (ip), vehicle: saline with Tween-80 90 % of control

Cc1cc2c(cc1C)-c1ccccc1C2=O
inactive: [1] 102 % of control | [2] 102 % of control | [3] 96 % of control

Cl[C](Cl)([Pb]([c]1ccccc1)([c]1ccccc1)[c]1ccccc1)[Pb]([c]1ccccc1)([c]1ccccc1)[c]1ccccc1
inactive: dose: 100.0 mg/kg/injection, schedule: Q04DX002 (ip), vehicle: saline with Tween-80 98 % of control | dose: 200.0 mg/kg/injection, schedule: Q04DX002 (ip), vehicle: saline with Tween-80 94 % of control | dose: 400.0 mg/kg/injection, schedule: Q04DX002 (ip), vehicle: saline with Tween-80 90 % of control

N#CSCCSC#N
inactive: dose: 10.0 mg/kg/injection, schedule: Q04DX003 (ip), vehicle: Klucel (hydroxypropylcellulose) (HPC) 99 % of control

C(/C=C/C=C/Nc1ccc(N=Nc2ccccc2)cc1)=Nc1ccc(N=Nc2ccccc2)cc1
inactive: dose: 100.0 mg/kg/injection, schedule: Q01DX009 (ip), vehicle: saline sonified 94 % of control | dose: 100.0 mg/kg/injection, schedule: Q04DX003 (ip), vehicle: saline sonified 94 % of control | dose: 200.0 mg/kg/injection, schedule: Q01DX009 (ip), vehicle: saline sonified 94 % of control | dose: 200.0 mg/kg/injection, schedule: Q04DX003 (ip), vehicle: saline sonified 93 % of control | dose: 400.0 mg/kg/injection, schedule: Q04DX003 (ip), vehicle: saline sonified 91 % of control

CNC(=O)NO
inactive: dose: 50.0 mg/kg/injection, schedule: Q01DX Z (ip), vehicle: water 112 % of control | dose: 200.0 mg/kg/injection, schedule: Q01DX Z (ip), vehicle: water 97 % of control | dose: 400.0 mg/kg/injection, schedule: Q01DX Z (ip), vehicle: water 115 % of control

CCCS(=O)(=O)C(S(C)(=O)=O)S(=O)(=O)CC (stereo unspecified)
inactive: dose: 100.0 mg/kg/injection, schedule: Q01DX001 (ip), vehicle: Klucel (hydroxypropylcellulose) (HPC) 94 % of control | dose: 200.0 mg/kg/injection, schedule: Q01DX001 (ip), vehicle: Klucel (hydroxypropylcellulose) (HPC) 98 % of control | dose: 400.0 mg/kg/injection, schedule: Q01DX001 (ip), vehicle: Klucel (hydroxypropylcellulose) (HPC) 91 % of control

CC(=O)OC1CC2CCC1C2Br (stereo unspecified)
inactive: [1] 95 % of control | [2] 93 % of control | [3] 90 % of control

CCn1c(O)c(C=N)c(=O)[nH]c1=O
inactive: dose: 100.0 mg/kg/injection, schedule: Q01DX009 (ip), vehicle: saline 96 % of control | [4] 88 % of control | dose: 200.0 mg/kg/injection, schedule: Q01DX009 (ip), vehicle: saline 93 % of control | [5] 95 % of control | dose: 400.0 mg/kg/injection, schedule: Q04DX003 (ip), vehicle: saline 90 % of control

Cc1ccc(CN(CC(=O)O)S(C)(=O)=O)cc1
inactive: dose: 100.0 mg/kg/injection, schedule: Q01DX009 (ip), vehicle: other 105 % of control | dose: 100.0 mg/kg/injection, schedule: Q04DX003 (ip), vehicle: other 95 % of control | dose: 200.0 mg/kg/injection, schedule: Q01DX009 (ip), vehicle: other 98 % of control | dose: 200.0 mg/kg/injection, schedule: Q04DX003 (ip), vehicle: other 97 % of control | dose: 400.0 mg/kg/injection, schedule: Q01DX009 (ip), vehicle: other 110 % of control | dose: 400.0 mg/kg/injection, schedule: Q04DX003 (ip), vehicle: other 101 % of control

CCO/C=N\c1[nH]ncc1C#N
inactive: dose: 50.0 mg/kg/injection, schedule: Q01DX009 (ip), vehicle: Klucel (hydroxypropylcellulose) (HPC) 93 % of control | dose: 100.0 mg/kg/injection, schedule: Q01DX009 (ip), vehicle: Klucel (hydroxypropylcellulose) (HPC) 107 % of control | dose: 200.0 mg/kg/injection, schedule: Q01DX009 (ip), vehicle: Klucel (hydroxypropylcellulose) (HPC) 103 % of control

CC(C)(N)Cc1ccc(Cl)cc1
inactive: dose: 25.0 mg/kg/injection, schedule: Q04DX003 (ip), vehicle: saline 111 % of control | dose: 50.0 mg/kg/injection, schedule: Q04DX003 (ip), vehicle: saline 106 % of control | [4] 104 % of control | [5] 92 % of control

N#[N+]c1ccc2[nH]c3ccccc3c(=O)c2c1
inactive: dose: 5.0 mg/kg/injection, schedule: Q01DX009 (ip), vehicle: saline 105 % of control | dose: 10.0 mg/kg/injection, schedule: Q01DX001 (ip), vehicle: saline 101 % of control | dose: 10.0 mg/kg/injection, schedule: Q01DX009 (ip), vehicle: saline 102 % of control | dose: 10.0 mg/kg/injection, schedule: Q04DX003 (ip), vehicle: saline 94 % of control | dose: 20.0 mg/kg/injection, schedule: Q01DX001 (ip), vehicle: saline 101 % of control | dose: 20.0 mg/kg/injection, schedule: Q01DX009 (ip), vehicle: saline 94 % of control | dose: 20.0 mg/kg/injection, schedule: Q04DX003 (ip), vehicle: saline 97 % of control | dose: 40.0 mg/kg/injection, schedule: Q01DX001 (ip), vehicle: saline 104 % of control | dose: 40.0 mg/kg/injection, schedule: Q04DX003 (ip), vehicle: saline 97 % of control

COc1cc2c(cc1OC)C1Cc3ccc(OC)c(OC)c3CN1CC2 (stereo unspecified)
inactive: dose: 50.0 mg/kg/injection, schedule: Q04DX003 (ip), vehicle: saline with Tween-80 86 % of control | dose: 100.0 mg/kg/injection, schedule: Q04DX002 (ip), vehicle: Klucel (hydroxypropylcellulose) (HPC) 87 % of control | dose: 100.0 mg/kg/injection, schedule: Q04DX003 (ip), vehicle: saline with Tween-80 116 % of control | dose: 200.0 mg/kg/injection, schedule: Q04DX002 (ip), vehicle: Klucel (hydroxypropylcellulose) (HPC) 103 % of control | dose: 200.0 mg/kg/injection, schedule: Q04DX003 (ip), vehicle: saline with Tween-80 94 % of control

C=CCOCC(O)CN(CCCC)CCCC (stereo unspecified)
inactive: dose: 25.0 mg/kg/injection, schedule: Q01DX009 (ip), vehicle: saline with Tween-80 95 % of control | dose: 50.0 mg/kg/injection, schedule: Q01DX009 (ip), vehicle: saline with Tween-80 97 % of control
